The source of these data is PubChem BioAssay (NCI).

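48-hour exposure; five concentrations; linearly interpolated endpoints. At the TGI there is no net growth.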

Some test systems named below: K-562 leukemia; SN12C renal; SF-268 CNS; T-47D breast; HCT-116 colon; SW-620 colon; NCI-H226 lung; CCRF-CEM leukemia; MDA-MB-435; U251 CNS; SK-OV-3 ovarian; UACC-257 melanoma; UO-31 renal; M14 melanoma; SF-539 CNS; A549 NSCLC; HCC-2998 colon; SK-MEL-28 melanoma; OVCAR-4 ovarian.
Common to all, as to assay: NCI-60 cell line screen, 48 h

Take `C=C(C)CCC1C=[N+]([O-])OC(C)(C)C1(C)C` (stereo not given): the TGI with K-562 leukemia, with SN12C renal, in the assay with SF-268 CNS, with T-47D breast, with HCT-116 colon and in the assay on SW-620 colon was greater than 100 µM in each case. The TGI in the assay with NCI-H226 lung, in the assay on CCRF-CEM leukemia, with MDA-MB-435, in the assay with U251 CNS, in the assay with SK-OV-3 ovarian and in the assay on UACC-257 melanoma was greater than 100 µM throughout. In addition, the TGI in the assay on UO-31 renal, in the assay on M14 melanoma, with SF-539 CNS, with A549 NSCLC and in the assay on HCC-2998 colon was greater than 100 µM each time.

Take `CCSc1nc(N/N=C/c2cccs2)c2cnn(CO)c2n1`: the TGI was 52.7 µM in the assay with K-562 leukemia; 30.6 µM in the assay on SN12C renal; 29.3 µM in the assay with SK-MEL-28 melanoma; 23.7 µM with SF-268 CNS; 18.5 µM in the assay on T-47D breast; greater than 100 µM with OVCAR-4 ovarian. In addition, the TGI turned out to be 16.6 µM with HCT-116 colon; 24.2 µM in the assay on SW-620 colon; 9.09 µM with NCI-H226 lung; 18.9 µM with MDA-MB-435; 30.1 µM with U251 CNS; 29.4 µM in the assay on SK-OV-3 ovarian. Besides, the TGI in the assay on UACC-257 melanoma came out at 26.4 µM; with UO-31 renal, 10.2 µM; in the assay with M14 melanoma, 22.9 µM; in the assay with SF-539 CNS, 26 µM; with A549 NSCLC it was 24.1 µM.

Regarding `CCCCCCCCCCCC[N+]12CC[N+](C)(CC1)CC2`, the TGI in the assay with K-562 leukemia is 53.2 µM; in the assay on SN12C renal it was greater than 100 µM; in the assay with SK-MEL-28 melanoma, greater than 100 µM; in the assay on SF-268 CNS, 53.3 µM; in the assay with OVCAR-4 ovarian, greater than 100 µM; in the assay with HCT-116 colon it was greater than 100 µM. Moreover, the TGI with SW-620 colon was greater than 100 µM; in the assay with NCI-H226 lung, 66.5 µM; in the assay on CCRF-CEM leukemia it was 53.3 µM; with U251 CNS it was 29.9 µM; in the assay with SK-OV-3 ovarian it was greater than 100 µM; in the assay on UACC-257 melanoma, greater than 100 µM. Further, the TGI in the assay on UO-31 renal is greater than 100 µM; in the assay with M14 melanoma, greater than 100 µM; in the assay with SF-539 CNS, greater than 100 µM; with A549 NSCLC, greater than 100 µM; with HCC-2998 colon, 23 µM.

With `O=C1CN(c2cccc(C(F)(F)F)c2)C(=O)CN1CCN1CC(=O)N(c2cccc(C(F)(F)F)c2)CC1=O`, the TGI with K-562 leukemia, in the assay on SN12C renal, in the assay with SK-MEL-28 melanoma, in the assay on SF-268 CNS, in the assay on T-47D breast and with OVCAR-4 ovarian was greater than 100 µM throughout. The TGI with HCT-116 colon, in the assay on SW-620 colon, with CCRF-CEM leukemia, with MDA-MB-435, in the assay with U251 CNS and with SK-OV-3 ovarian was greater than 100 µM throughout. Also, the TGI in the assay on UACC-257 melanoma, in the assay with UO-31 renal, in the assay with M14 melanoma, in the assay on SF-539 CNS, in the assay on A549 NSCLC and in the assay with HCC-2998 colon was greater than 100 µM throughout.

Regarding `CC(C)(C)OC(=O)N1N=CCC1c1ccccc1` (stereo not given), the TGI with K-562 leukemia, in the assay on SN12C renal, in the assay on SF-268 CNS, with T-47D breast, in the assay with HCT-116 colon and in the assay with SW-620 colon was greater than 100 µM in each case. For the same molecule, the TGI in the assay on NCI-H226 lung, in the assay on CCRF-CEM leukemia, in the assay with MDA-MB-435, in the assay with SK-OV-3 ovarian, in the assay with UACC-257 melanoma and with UO-31 renal was greater than 100 µM each time. In addition, the TGI with M14 melanoma, with SF-539 CNS, in the assay with A549 NSCLC and in the assay on HCC-2998 colon was greater than 100 µM throughout.

On to `Brc1ccc(-c2cc3c(cc2C2SCCS2)OCO3)cc1`, for which the TGI in the assay on K-562 leukemia, in the assay on SN12C renal, in the assay on SK-MEL-28 melanoma, with SF-268 CNS, with OVCAR-4 ovarian and in the assay on HCT-116 colon was greater than 100 µM in each case. In addition, the TGI in the assay on SW-620 colon was greater than 100 µM; in the assay on NCI-H226 lung, 40.3 µM; in the assay on CCRF-CEM leukemia it was greater than 100 µM; with U251 CNS, greater than 100 µM; in the assay with SK-OV-3 ovarian it was greater than 100 µM; with UACC-257 melanoma, greater than 100 µM. Also, the TGI in the assay with UO-31 renal was 90.4 µM; in the assay on M14 melanoma it was greater than 100 µM; with SF-539 CNS it was 39.1 µM; with A549 NSCLC, greater than 100 µM; in the assay on HCC-2998 colon it was greater than 100 µM.

For `CCOC(=O)N1CCC2(CC1)C[C@@](C(C)=O)(c1ccccc1)C(C)O2` (stereo not given in full), the TGI was greater than 100 µM in the assay on K-562 leukemia; greater than 100 µM in the assay with SK-MEL-28 melanoma; greater than 100 µM in the assay with SF-268 CNS; 91.4 µM in the assay on T-47D breast; greater than 100 µM in the assay on OVCAR-4 ovarian; greater than 100 µM in the assay with SW-620 colon. Also, the TGI in the assay with NCI-H226 lung, with MDA-MB-435, with U251 CNS, with SK-OV-3 ovarian, in the assay on UACC-257 melanoma and in the assay on UO-31 renal was greater than 100 µM throughout. In addition, the TGI in the assay on M14 melanoma, in the assay on SF-539 CNS, in the assay with A549 NSCLC and in the assay with HCC-2998 colon was greater than 100 µM in each case.

`O=C(O)c1nn(-c2ccccc2)nc1-c1nn(-c2ccccc2)nc1C(=O)O`: the TGI in the assay with K-562 leukemia, in the assay with SN12C renal, in the assay on SK-MEL-28 melanoma, in the assay on SF-268 CNS, in the assay on T-47D breast and in the assay with OVCAR-4 ovarian was greater than 100 µM throughout. The TGI with HCT-116 colon, in the assay on SW-620 colon, in the assay on NCI-H226 lung, in the assay on CCRF-CEM leukemia, in the assay with MDA-MB-435 and in the assay on U251 CNS was greater than 100 µM throughout. The TGI in the assay on SK-OV-3 ovarian, with UACC-257 melanoma, in the assay on UO-31 renal, in the assay with M14 melanoma, with SF-539 CNS and in the assay with A549 NSCLC was greater than 100 µM throughout. This molecule had a TGI in the assay on HCC-2998 colon greater than 100 µM.

Take `COc1ccc([C@H]2CC3C(=O)N(c4ccc(OC)cc4)C(=O)C3c3[nH]c4ccccc4c32)cc1` (stereo not given in full): the TGI in the assay with K-562 leukemia, with SN12C renal, in the assay on SK-MEL-28 melanoma, with SF-268 CNS, with OVCAR-4 ovarian and with HCT-116 colon was greater than 100 µM in each case. Also, the TGI in the assay with SW-620 colon, in the assay with NCI-H226 lung, in the assay on CCRF-CEM leukemia, in the assay with U251 CNS, with SK-OV-3 ovarian and in the assay on UACC-257 melanoma was greater than 100 µM throughout. The TGI in the assay with UO-31 renal is greater than 100 µM; with M14 melanoma, greater than 100 µM; with SF-539 CNS it was 51.6 µM; in the assay with A549 NSCLC it was greater than 100 µM; with HCC-2998 colon it was greater than 100 µM.

Consider `C=CCOC(=O)Cn1ccc(=O)[nH]c1=O`, for which the TGI in the assay with K-562 leukemia, in the assay on SN12C renal, in the assay with SK-MEL-28 melanoma, with SF-268 CNS, with T-47D breast and with HCT-116 colon was greater than 100 µM each time. Besides, the TGI in the assay with SW-620 colon, in the assay with NCI-H226 lung, in the assay with CCRF-CEM leukemia, in the assay on U251 CNS, in the assay with SK-OV-3 ovarian and with UACC-257 melanoma was greater than 100 µM each time. For the same molecule, the TGI in the assay with UO-31 renal, in the assay on M14 melanoma, with SF-539 CNS, in the assay with A549 NSCLC and in the assay with HCC-2998 colon was greater than 100 µM in each case.

As for `CCCN(CCC)C(=O)c1c(N2CCN(C)CC2)c2cccnc2n2c(C)cnc12`, the TGI with K-562 leukemia, with SN12C renal, in the assay on SK-MEL-28 melanoma, in the assay with SF-268 CNS, with T-47D breast and with OVCAR-4 ovarian was greater than 100 µM in each case. Besides, the TGI with HCT-116 colon is greater than 100 µM; in the assay with SW-620 colon, 45.5 µM; in the assay on NCI-H226 lung it was greater than 100 µM; in the assay on CCRF-CEM leukemia it was greater than 100 µM; in the assay on MDA-MB-435 it was greater than 100 µM; in the assay on U251 CNS, greater than 100 µM. Further, the TGI with UACC-257 melanoma, in the assay with UO-31 renal, in the assay with M14 melanoma, in the assay with SF-539 CNS and with A549 NSCLC was greater than 100 µM throughout.

As to `CCN(CC)CCC1CCCCN1CC(=O)N1c2cc(Cl)ccc2NC(=O)CC1C` (stereo not given), the TGI in the assay with K-562 leukemia, with SN12C renal, in the assay on SK-MEL-28 melanoma, in the assay on SF-268 CNS, with T-47D breast and in the assay with OVCAR-4 ovarian was greater than 100 µM in each case. In addition, the TGI in the assay with HCT-116 colon, in the assay on NCI-H226 lung, with CCRF-CEM leukemia, with MDA-MB-435, in the assay on U251 CNS and in the assay with SK-OV-3 ovarian was greater than 100 µM in each case. The TGI with UO-31 renal, with M14 melanoma, in the assay on SF-539 CNS, in the assay on A549 NSCLC and in the assay with HCC-2998 colon was greater than 100 µM each time.
